≈ marks a conversion by molar mass, not a printed value. Calls of active or inactive are those of the source. The calls are words filed in the database; no cut-off is given here.
How the values were obtained:
[1] = Half life in Wistar Han rat at 3 mg/kg, iv administered as 15 mins infusion by LC-MS/MS analysis; type: ADME, organism-based; conditions: in vivo
Staphylococcus aureus [2] = assay: Antibacterial activity against methicillin sensitive Staphylococcus aureus ARC516 by broth microdilution method; type: functional
[3] = Half life in CD-1 mouse at 3 mg/kg, iv administered as 15 mins infusion by LC-MS/MS analysis; type: ADME, organism-based; conditions: in vivo
Staphylococcus aureus [4] = assay: Antibacterial activity against methicillin/quinolone-resistant Staphylococcus aureus ARC517 by broth microdilution method; type: functional
[5] = Protein binding in rat plasma assessed as unbound fraction at 10 uM measured after 16 hrs by LC-MS/MS based equilibrium dialysis method; type: ADME, cell-free
[6] = Volume of distribution at steady state in Wistar Han rat at 3 mg/kg, iv administered as 15 mins infusion by LC-MS/MS analysis; type: ADME, organism-based; conditions: in vivo, read-out: Vdss
[7] = Volume of distribution at steady state in CD-1 mouse at 3 mg/kg, iv administered as 15 mins infusion by LC-MS/MS analysis; type: ADME, organism-based; conditions: in vivo, read-out: Vdss
[8] = Plasma clearance in Wistar Han rat at 3 mg/kg, iv administered as 15 mins infusion by LC-MS/MS analysis; type: ADME, organism-based; design: unit not given here; conditions: in vivo, 0.25 h
[9] = Unbound plasma clearance in Wistar Han rat at 3 mg/kg, iv administered as 15 mins infusion by LC-MS/MS analysis; type: ADME, organism-based; design: unit not given here; conditions: in vivo, 0.25 h
Staphylococcus aureus [10] = assay: Antibacterial activity against methicillin sensitive Staphylococcus aureus ARC516 infected in CD-1 mouse neutropenic thigh infection model assessed as reduction in colony forming unit at 25 to 50 mg/kg, ip measured after 24 hrs; type: functional, organism-based
Staphylococcus aureus [11] = assay: Antibacterial activity against methicillin sensitive Staphylococcus aureus ARC516 in presence of human serum by broth microdilution method; type: functional
Haemophilus influenzae = assay: Antibacterial activity against Haemophilus influenzae ARC737 by broth microdilution method; type: functional
[12] = Inhibition of recombinant Escherichia coli DNA gyrase AB expressed in Escherichia coli BL21 (DE3) using relaxed pJT519 DNA as substrate preincubated for 20 mins followed by 5'-BODIPY-TMR-TTCTTCTTCT addition and measured after 1 hr by fluorescence anisotropy
L5178Y = assay: Genotoxicity in mouse L5178Y cells using DAPI staining by microscopy based micronucleation assay; type: toxicity, cell-based
Escherichia coli = assay: Antibacterial activity against Escherichia coli ARC523 by broth microdilution method; type: functional
Staphylococcus aureus [13] = assay: Antibacterial activity against methicillin sensitive Staphylococcus aureus ARC516 infected in CD-1 mouse neutropenic thigh infection model assessed as log reduction in colony forming unit at 25 to 150 mg/kg, ip measured after 12 hrs relative to initial treatment control; type: functional; conditions: dose mg/kg 25-150
[14] = n-octanol/phosphate buffer partition coefficient, log D of the compound at pH 7.4 measured after 1 hr by UV-LC/MS based shake flask method; type: physicochemical
Staphylococcus aureus [15] = assay: Antibacterial activity against methicillin sensitive Staphylococcus aureus ARC516 infected in CD-1 mouse neutropenic thigh infection model assessed as log reduction in colony forming unit at 150 mg/kg, ip measured after 24 hrs relative to initial treatment control; type: functional; conditions: dose mg/kg 25-150
[16] = Unbound plasma clearance in CD-1 mouse at 3 mg/kg, iv administered as 15 mins infusion by LC-MS/MS analysis; type: ADME, organism-based; conditions: in vivo, 0.25 h
[17] = Protein binding in human plasma assessed as unbound fraction at 10 uM measured after 16 hrs by LC-MS/MS based equilibrium dialysis method; type: ADME, cell-free
[18] = Oral bioavailability in Wistar Han rat at 10 mg/kg by LC-MS/MS analysis; type: ADME, organism-based; conditions: in vivo
Staphylococcus aureus [19] = assay: Antibacterial activity against methicillin sensitive Staphylococcus aureus ARC516 infected in CD-1 mouse neutropenic thigh infection model assessed as log reduction in colony forming unit at 150 mg/kg, ip measured after 24 hrs relative to untreated control; type: functional
[20] = Oral bioavailability in CD-1 mouse at 10 mg/kg by LC-MS/MS analysis; type: ADME, organism-based; conditions: in vivo
[21] = Solubility of the compound by high throughput solubility assay; type: physicochemical
[22] = Plasma clearance in CD-1 mouse at 3 mg/kg, iv administered as 15 mins infusion by LC-MS/MS analysis; type: ADME, organism-based; conditions: in vivo, 0.25 h
Streptococcus pneumoniae = assay: Antibacterial activity against Streptococcus pneumoniae ARC548 by broth microdilution method; type: functional
Streptococcus pyogenes = assay: Antibacterial activity against Streptococcus pyogenes ARC838 by broth microdilution method; type: functional
[23] = Protein binding in mouse plasma assessed as unbound fraction at 10 uM measured after 16 hrs by LC-MS/MS based equilibrium dialysis method; type: ADME, cell-free
[24] = Ratio of MIC for antibacterial activity against methicillin/quinolone-resistant Staphylococcus aureus ARC517 to protein binding in human plasma assessed as unbound fraction

SMILES | MIC (Staphylococcus aureus [2]) [µM] | MIC (Staphylococcus aureus [4]) [µM] | CL [8] | CL free [9] | MIC (Staphylococcus aureus [11]) [µM] | MIC (Haemophilus influenzae) [µM] | IC50 [12] [µM] | NOAEL (L5178Y) [µM] | MIC (Escherichia coli) [µM] | logD at 1 h [14] | fraction unbound at 16 h, 10 µM [17] | solubility [21] [µM] | MIC (Streptococcus pneumoniae) [µM] | MIC (Streptococcus pyogenes) [µM] | Ratio [24] | further results
COc1ncnn1-c1noc2c(F)c3c(cc12)CC1(C(=O)NC(=O)NC1=O)[C@H]1[C@H](C)O[C@H](C)CN31 | 0.098 (≈ 0.0476 µg/mL) | 0.39 (≈ 0.189 µg/mL) | 13 | 93 | 0.39 | 0.78 (≈ 0.379 µg/mL) | 0.32 | 25 | 30 (≈ 14.6 µg/mL) | 1.7 | 0.14 | 900 (≈ 437 µg/mL) | 0.39 (≈ 0.189 µg/mL) | 0.39 (≈ 0.189 µg/mL) |  | half-life [1]: 1.69 h; half-life [3]: 2.52 h; fraction unbound at 16 h, 10 µM [5]: 0.13; Vd [6]: 1.9 L/kg; Vd [7]: 2.4 L/kg; Activity (Staphylococcus aureus [10]): inactive; log(activity) (Staphylococcus aureus [13]): 1; log(activity) (Staphylococcus aureus [15]): 2; CL free [16]: 3.3 mL/h/kg; bioavailability [18]: 48%; log(activity) (Staphylococcus aureus [19]): 4.5; bioavailability [20]: 62%; CL [22]: 0.66 mL/h/kg; fraction unbound at 16 h, 10 µM [23]: 0.2
COCc1ncnn1-c1noc2c(F)c3c(cc12)CC1(C(=O)NC(=O)NC1=O)[C@H]1[C@H](C)O[C@H](C)CN31 | < 0.2 | 0.39 (≈ 0.195 µg/mL) | 17 | 120 | 0.39 | 0.78 (≈ 0.39 µg/mL) | 1.1 | 12 | 70 (≈ 35 µg/mL) | 1.7 | 0.14 | 890 (≈ 445 µg/mL) | 0.78 (≈ 0.39 µg/mL) | 0.78 (≈ 0.39 µg/mL) |  | 
C[C@@H]1CN2c3c(cc4c(-n5cnc(C#N)n5)noc4c3F)CC3(C(=O)NC(=O)NC3=O)[C@H]2[C@H](C)O1 | 0.2 (≈ 0.0961 µg/mL) | 0.39 (≈ 0.187 µg/mL) | 200 | 2600 | 3.1 | 3.1 (≈ 1.49 µg/mL) | 1.3 | < 6 | 100 (≈ 48 µg/mL) | 2 |  | 5 (≈ 2.4 µg/mL) | 1.6 (≈ 0.769 µg/mL) | 0.8 (≈ 0.384 µg/mL) |  | 
C[C@@H]1CN2c3c(cc4c(-n5cncn5)noc4c3Cl)CC3(C(=O)NC(=O)NC3=O)[C@H]2[C@H](C)O1 | < 0.2 | 0.39 (≈ 0.184 µg/mL) | 11.6 | 156 | 0.39 | 0.78 (≈ 0.368 µg/mL) | 0.12 | < 6 | 12 (≈ 5.66 µg/mL) | 2 | 0.074 | 420 (≈ 198 µg/mL) | 0.39 (≈ 0.184 µg/mL) | 0.39 (≈ 0.184 µg/mL) |  | 
CNc1ncnn1-c1noc2c(F)c3c(cc12)CC1(C(=O)NC(=O)NC1=O)[C@H]1[C@H](C)O[C@H](C)CN31 | 0.049 (≈ 0.0237 µg/mL) | 0.2 (≈ 0.0969 µg/mL) | 32 | 190 | < 0.2 | 0.39 (≈ 0.189 µg/mL) | 0.071 | 3 | 16 (≈ 7.75 µg/mL) | 2.1 | 0.08 | 280 (≈ 136 µg/mL) | 0.19 (≈ 0.092 µg/mL) | 0.19 (≈ 0.092 µg/mL) |  | 
C[C@@H]1CN2c3c(cc4c(-n5ncnc5CO)noc4c3F)CC3(C(=O)NC(=O)NC3=O)[C@H]2[C@H](C)O1 | 0.31 (≈ 0.15 µg/mL) | 1.6 (≈ 0.777 µg/mL) | 37 | 220 | 0.49 | 0.78 (≈ 0.379 µg/mL) | 0.19 | 12 | 50 (≈ 24.3 µg/mL) | 1.4 | 0.17 | > 1000 | 0.39 (≈ 0.189 µg/mL) | 0.78 (≈ 0.379 µg/mL) |  | 
C[C@@H]1CN2c3c(cc4c(-n5cnnc5)noc4c3F)CC3(C(=O)NC(=O)NC3=O)[C@H]2[C@H](C)O1 | 6.25 (≈ 2.85 µg/mL) | 25 (≈ 11.4 µg/mL) |  |  | 12.5 |  | 0.3 |  | > 200 | 0.54 | 0.34 | > 1000 |  |  | 74 | 
C[C@@H]1CN2c3c(cc4c(-n5nccn5)noc4c3F)CC3(C(=O)NC(=O)NC3=O)[C@H]2[C@H](C)O1 | < 0.2 | 0.78 (≈ 0.355 µg/mL) |  |  | 1.56 |  | 0.24 |  | 12.5 (≈ 5.69 µg/mL) | 1.95 | 0.031 | 810 (≈ 369 µg/mL) |  |  | 25 | 
CNS(=O)(=O)c1cnn(-c2noc3c(F)c4c(cc23)CC2(C(=O)NC(=O)NC2=O)[C@H]2[C@H](C)O[C@H](C)CN42)c1 | 0.39 (≈ 0.214 µg/mL) | 1.56 (≈ 0.854 µg/mL) |  |  | 1.6 |  | 0.61 |  | 50 (≈ 27.4 µg/mL) | 2.2 | 0.068 | 21 (≈ 11.5 µg/mL) |  |  | 23 | 
C[C@@H]1CN2c3c(cc4c(-n5ccnn5)noc4c3F)CC3(C(=O)NC(=O)NC3=O)[C@H]2[C@H](C)O1 | 0.068 (≈ 0.031 µg/mL) | 0.39 (≈ 0.178 µg/mL) |  |  | 0.78 |  | 0.22 |  | 6.25 (≈ 2.85 µg/mL) | 2 | 0.054 | 130 (≈ 59.2 µg/mL) |  |  | 7.2 | 
CCNc1ncnn1-c1noc2c(F)c3c(cc12)CC1(C(=O)NC(=O)NC1=O)[C@H]1[C@H](C)O[C@H](C)CN31 | 0.049 (≈ 0.0244 µg/mL) | 0.098 (≈ 0.0489 µg/mL) | 11 | 130 | < 0.2 | 0.39 (≈ 0.194 µg/mL) | 0.097 |  | 12 (≈ 5.98 µg/mL) | 2.2 | 0.037 | 3 (≈ 1.5 µg/mL) | < 0.2 | < 0.2 |  | 
C[C@@H]1CN2c3c(cc4c(-n5cccn5)noc4c3F)CC3(C(=O)NC(=O)NC3=O)[C@H]2[C@H](C)O1 (racemic) | 0.39 (≈ 0.177 µg/mL) | 0.78 (≈ 0.354 µg/mL) |  |  | 3.1 |  |  |  | 25 (≈ 11.4 µg/mL) | 3 | < 0.01 | 29 (≈ 13.2 µg/mL) |  |  | >80 | 
C[C@@H]1CN2c3c(cc4c(-n5ncnc5CN(C)C)noc4c3F)CC3(C(=O)NC(=O)NC3=O)[C@H]2[C@H](C)O1 | < 0.2 | 0.78 (≈ 0.4 µg/mL) | 23 | 110 | 0.39 | 1.6 (≈ 0.82 µg/mL) | 0.59 |  | 50 (≈ 25.6 µg/mL) | 0.93 | 0.18 | > 1000 | 1.6 (≈ 0.82 µg/mL) | 1.6 (≈ 0.82 µg/mL) |  | 
C[C@@H]1CN2c3c(cc4c(-n5cc(C#N)cn5)noc4c3F)CC3(C(=O)NC(=O)NC3=O)[C@H]2[C@H](C)O1 | < 0.2 | 0.2 (≈ 0.0959 µg/mL) |  |  | 0.39 |  | 0.4 |  | 25 (≈ 12 µg/mL) | 2.4 | 0.044 | 10 (≈ 4.79 µg/mL) |  |  | 4.5 | 
C[C@@H]1CN2c3c(cc4c(-n5ccnc5)noc4c3F)CC3(C(=O)NC(=O)NC3=O)[C@H]2[C@H](C)O1 (racemic) | 1.56 (≈ 0.709 µg/mL) | 12.5 (≈ 5.68 µg/mL) |  |  | 12.5 |  | 0.49 |  | 50 (≈ 22.7 µg/mL) | 2 | 0.031 | 12 (≈ 5.45 µg/mL) |  |  | 400 | 

Reference: ChEMBL document CHEMBL4725408, “Antibacterial Spiropyrimidinetriones with N-Linked Azole Substituents on a Benzisoxazole Scaffold Targeting DNA Gyrase” (J Med Chem, 2020)
